# Literature values as cited in patent publication US20120128730A1, “COMPOSITIONS AND METHODS FOR ONCE-DAILY TREATMENT OF OBSESSIVE COMPULSIVE DISORDER WITH ONDANSETRON” (priority 2010, published 2012).
# Test system: mesenteric bed or the nerves in the heart
# Conditions: animal studies
structure (smiles),measurement,value
Cc1nccn1CC1CCc2c(c3ccccc3n2C)C1=O (stereo not shown) [ondansetron],effect on the mesenteric bed or the nerves in the heart,did not appear to have effect
